Data: the supplement of paper PMC10307832

How the values were obtained:
Assay in all cases: relative viability (nuclei count vs DMSO), 5 days (fraction); higher = more cells survive
NCI-H650 = test system: NCI-H650
Procedure, shortened: (§1)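 Values are medians from duplicate plates. Each reflects relative viability, defined as the nuclei count of treated wells over that of vehicle wells. Lung cancer cell lines in 1536-well plates were pin-tool dosed one day after seeding with one drug alone or with a fixed anchor-drug dose plus five library-drug doses (not always all listed) in √10 steps, then fixed, stained and imaged at 4× after 5 days.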

NCI-H1437 = test system: NCI-H1437
Procedure, shortened: as §1

NCI-H2405 = test system: NCI-H2405
Procedure, shortened: as §1

NCI-H647 = test system: NCI-H647
Procedure, shortened: as §1

NCI-H2023 = test system: NCI-H2023
Procedure, shortened: as §1

NCI-H460 = test system: NCI-H460
Procedure, shortened: as §1

NCI-H2126 = test system: NCI-H2126
Procedure, shortened: as §1

EPLC-272H = test system: EPLC-272H
Procedure, shortened: as §1

HOP-62 = test system: HOP-62
Procedure, shortened: as §1

NCI-H1793 = test system: NCI-H1793
Procedure, shortened: as §1

NCI-H2170 = test system: NCI-H2170
Procedure, shortened: as §1

SW 1573 = test system: SW 1573
Procedure, shortened: as §1

NCI-H2347 = test system: NCI-H2347
Procedure, shortened: as §1

LOU-NH91 = test system: LOU-NH91
Procedure, shortened: as §1

NCI-H2009 = test system: NCI-H2009
Procedure, shortened: as §1

NCI-H520 = test system: NCI-H520
Procedure, shortened: as §1

EMC-BAC-2 = test system: EMC-BAC-2
Procedure, shortened: as §1

HCC-44 = test system: HCC-44
Procedure, shortened: as §1

NCI-H727 = test system: NCI-H727
Procedure, shortened: as §1

PC-14 = test system: PC-14
Procedure, shortened: as §1

NCI-H23 = test system: NCI-H23
Procedure, shortened: as §1

Structure (SMILES): CCCCCCCCCCCC1=C(O)C(=O)C=C(O)C1=O [Embelin] + CS(=O)(=O)CCNCc1ccc(-c2ccc3ncnc(Nc4ccc(OCc5cccc(F)c5)c(Cl)c4)c3c2)o1 [Lapatinib] (partner 2 µM)
- relative viability (NCI-H650; first compound 0.08 µM): 0.677
- relative viability (NCI-H650; first compound 0.8 µM): 1.47
- relative viability (NCI-H650; first compound 2.53 µM): 0.831
- relative viability (NCI-H650; first compound 8 µM): 0.658
- relative viability (NCI-H1437; first compound 0.08 µM): 0.784
- relative viability (NCI-H1437; first compound 0.8 µM): 0.938
- relative viability (NCI-H1437; first compound 2.53 µM): 1.04
- relative viability (NCI-H1437; first compound 8 µM): 0.466
- relative viability (NCI-H2405; first compound 0.08 µM): 1.16
- relative viability (NCI-H2405; first compound 0.8 µM): 1.48
- relative viability (NCI-H2405; first compound 2.53 µM): 1.06
- relative viability (NCI-H2405; first compound 8 µM): 1.02
- relative viability (NCI-H647; first compound 0.08 µM): 1.08
- relative viability (NCI-H647; first compound 0.8 µM): 1.38
- relative viability (NCI-H647; first compound 2.53 µM): 1.89
- relative viability (NCI-H647; first compound 8 µM): 1.17
- relative viability (NCI-H2023; first compound 0.08 µM): 0.837
- relative viability (NCI-H2023; first compound 0.8 µM): 0.979
- relative viability (NCI-H2023; first compound 2.53 µM): 0.838
- relative viability (NCI-H2023; first compound 8 µM): 0.477
- relative viability (NCI-H460; first compound 0.08 µM): 1.04
- relative viability (NCI-H460; first compound 0.8 µM): 1.1
- relative viability (NCI-H460; first compound 8 µM): 1.1
- relative viability (NCI-H2126; first compound 0.08 µM): 0.742
- relative viability (NCI-H2126; first compound 0.8 µM): 0.791
- relative viability (NCI-H2126; first compound 2.53 µM): 0.83
- relative viability (NCI-H2126; first compound 8 µM): 0.643
- relative viability (EPLC-272H; first compound 0.08 µM): 0.899
- relative viability (EPLC-272H; first compound 0.8 µM): 1.38
- relative viability (EPLC-272H; first compound 2.53 µM): 1.01
- relative viability (EPLC-272H; first compound 8 µM): 0.816
- relative viability (HOP-62; first compound 0.08 µM): 1.01
- relative viability (HOP-62; first compound 0.8 µM): 1.08
- relative viability (HOP-62; first compound 2.53 µM): 1.1
- relative viability (HOP-62; first compound 8 µM): 0.908
- relative viability (NCI-H1793; first compound 0.08 µM): 0.68
- relative viability (NCI-H1793; first compound 0.8 µM): 0.833
- relative viability (NCI-H1793; first compound 2.53 µM): 0.801
- relative viability (NCI-H1793; first compound 8 µM): 0.686
- relative viability (NCI-H2170; first compound 0.08 µM): 0.276
- relative viability (NCI-H2170; first compound 0.8 µM): 0.282
- relative viability (NCI-H2170; first compound 2.53 µM): 0.275
- relative viability (NCI-H2170; first compound 8 µM): 0.253
- relative viability (SW 1573; first compound 0.08 µM): 1.04
- relative viability (SW 1573; first compound 0.8 µM): 1.03
- relative viability (SW 1573; first compound 2.53 µM): 1.33
- relative viability (SW 1573; first compound 8 µM): 1.09
- relative viability (NCI-H2347; first compound 0.08 µM): 1.02
- relative viability (NCI-H2347; first compound 0.8 µM): 0.929
- relative viability (NCI-H2347; first compound 2.53 µM): 0.968
- relative viability (NCI-H2347; first compound 8 µM): 0.969
- relative viability (LOU-NH91; first compound 0.08 µM): 0.823
- relative viability (LOU-NH91; first compound 0.8 µM): 0.99
- relative viability (LOU-NH91; first compound 2.53 µM): 0.866
- relative viability (LOU-NH91; first compound 8 µM): 0.63
- relative viability (NCI-H2009; first compound 0.08 µM): 1.05
- relative viability (NCI-H2009; first compound 0.8 µM): 1.09
- relative viability (NCI-H2009; first compound 2.53 µM): 0.815
- relative viability (NCI-H2009; first compound 8 µM): 0.879
- relative viability (NCI-H520; first compound 0.08 µM): 0.946
- relative viability (NCI-H520; first compound 0.8 µM): 0.729
- relative viability (NCI-H520; first compound 2.53 µM): 0.936
- relative viability (NCI-H520; first compound 8 µM): 0.862
- relative viability (EMC-BAC-2; first compound 0.08 µM): 0.932
- relative viability (EMC-BAC-2; first compound 0.8 µM): 0.959
- relative viability (EMC-BAC-2; first compound 2.53 µM): 0.926
- relative viability (EMC-BAC-2; first compound 8 µM): 0.817
- relative viability (HCC-44; first compound 0.08 µM): 1.03
- relative viability (HCC-44; first compound 0.8 µM): 1.02
- relative viability (HCC-44; first compound 2.53 µM): 1.15
- relative viability (HCC-44; first compound 8 µM): 0.908
- relative viability (NCI-H727; first compound 0.08 µM): 0.737
- relative viability (NCI-H727; first compound 0.8 µM): 0.753
- relative viability (NCI-H727; first compound 2.53 µM): 1.13
- relative viability (NCI-H727; first compound 8 µM): 0.738
- relative viability (PC-14; first compound 0.08 µM): 0.391
- relative viability (PC-14; first compound 0.8 µM): 0.355
- relative viability (PC-14; first compound 2.53 µM): 0.347
- relative viability (PC-14; first compound 8 µM): 0.353
- relative viability (NCI-H23; first compound 0.08 µM): 1.17
- relative viability (NCI-H23; first compound 0.8 µM): 1.2
- relative viability (NCI-H23; first compound 2.53 µM): 1.36
- relative viability (NCI-H23; first compound 8 µM): 1.07
